The source of these data is PubChem BioAssay (NCI).

Some test systems named below: SN12C renal; SK-MEL-2 melanoma; OVCAR-4 ovarian; SK-MEL-28 melanoma; HOP-62 NSCLC; OVCAR-8 ovarian; T-47D breast; NCI-H226 lung; OVCAR-5 ovarian; M14 melanoma; HS 578T breast; HCT-15 colon; RXF 393 renal; KM12 colon; K-562 leukemia; SNB-19 CNS; CAKI-1 renal; ACHN renal; SF-539 CNS; A549 NSCLC.
Assay in all cases: NCI-60 cell line screen, 48 h

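Dose response: 5 concentrations. Exposure: 48 h. Format: 96-well plates. Endpoint: linear interpolation; highest concentration if not reached. The concentration for full growth arrest is given as TGI.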 Where only a bound is given, the exact number is not on record here.

As for `CN(C)c1ccc(N2C(=S)SC(=Nc3ccccc3)C2=Nc2ccccc2)cc1`, the TGI in the assay with SN12C renal, in the assay with SK-MEL-2 melanoma, in the assay on OVCAR-4 ovarian, with SK-MEL-28 melanoma, in the assay with HOP-62 NSCLC and in the assay with OVCAR-8 ovarian was more than 100 µM throughout. Further, the TGI with T-47D breast, in the assay with NCI-H226 lung, in the assay with OVCAR-5 ovarian, with M14 melanoma, with HS 578T breast and with HCT-15 colon was more than 100 µM in each case. In addition, the TGI in the assay with RXF 393 renal, with KM12 colon, with K-562 leukemia, in the assay with SNB-19 CNS and in the assay with CAKI-1 renal was more than 100 µM throughout.

`CC1(C)OP23(NC(=O)OC2(C(F)(F)F)c2ccccc2O3)OC1(C)C` (stereo not drawn): the TGI with ACHN renal, in the assay with SN12C renal, with SK-MEL-2 melanoma, in the assay with SF-539 CNS, in the assay on OVCAR-4 ovarian and with SK-MEL-28 melanoma was more than 100 µM each time. Further, the TGI with OVCAR-8 ovarian, with NCI-H226 lung, in the assay with M14 melanoma, in the assay on HCT-15 colon, in the assay with RXF 393 renal and in the assay with KM12 colon was more than 100 µM in each case. The TGI in the assay with A549 NSCLC, in the assay with K-562 leukemia and in the assay with SNB-19 CNS was more than 100 µM throughout.

With `COc1ccc2[nH]c(C(=O)N3CC(CCl)c4ccc(N)cc43)cc2c1` (stereo not drawn), the TGI is 0.375 µM in the assay with ACHN renal; 1.62 µM with SN12C renal; 0.396 µM in the assay on SK-MEL-2 melanoma; 1.7 µM in the assay with SF-539 CNS; 0.609 µM with OVCAR-4 ovarian; more than 31.6 µM in the assay with SK-MEL-28 melanoma. Further, the TGI in the assay with HOP-62 NSCLC was more than 100 µM; with OVCAR-8 ovarian, more than 68.9 µM; with T-47D breast it was more than 100 µM; in the assay with NCI-H226 lung it was more than 100 µM; with OVCAR-5 ovarian, more than 30.1 µM; in the assay with M14 melanoma, 0.319 µM. Besides, the TGI with HS 578T breast is 1.32 µM; in the assay on HCT-15 colon it was more than 50.4 µM; in the assay on RXF 393 renal, 0.251 µM; in the assay on KM12 colon, 0.406 µM; in the assay on A549 NSCLC, more than 86.9 µM; in the assay with K-562 leukemia, 0.494 µM. For the same compound, the values for the TGI in the assay with SNB-19 CNS and with CAKI-1 renal were more than 44.5 µM and 0.299 µM, respectively.

In the case of `COC(=O)/C=C\Sc1ccn(/C=C\C(=O)OC)c(=S)n1`, the TGI in the assay with ACHN renal is 32.2 µM; in the assay with SN12C renal, 82.9 µM; in the assay on SK-MEL-2 melanoma, 46.9 µM; in the assay with SF-539 CNS, 36.9 µM; in the assay with OVCAR-4 ovarian, 35.3 µM; in the assay on SK-MEL-28 melanoma, more than 100 µM. The TGI was 32.4 µM with HOP-62 NSCLC; 38.1 µM with OVCAR-8 ovarian; 46.1 µM in the assay on T-47D breast; more than 100 µM in the assay with OVCAR-5 ovarian; more than 100 µM in the assay on M14 melanoma; 78.9 µM in the assay on HS 578T breast. Further, the TGI is 42.6 µM in the assay on HCT-15 colon; 23.3 µM in the assay with RXF 393 renal; 42.8 µM in the assay on KM12 colon; 50.7 µM in the assay on A549 NSCLC; more than 100 µM in the assay on K-562 leukemia; 41.6 µM in the assay on SNB-19 CNS. Also, the TGI in the assay with CAKI-1 renal was 31.9 µM.

Take `N/N=C(\C(=O)Nc1c(Cl)cc([N+](=O)[O-])cc1Cl)C(c1cnc2ccc([N+](=O)[O-])cc2n1)[N+](=O)[O-]` (stereo not drawn): the TGI in the assay on ACHN renal, in the assay on SN12C renal, in the assay on SK-MEL-2 melanoma, with SF-539 CNS, in the assay with OVCAR-4 ovarian and with SK-MEL-28 melanoma was more than 100 µM in each case. Moreover, the TGI in the assay on HOP-62 NSCLC, with OVCAR-8 ovarian, with NCI-H226 lung, in the assay with OVCAR-5 ovarian, in the assay on HCT-15 colon and with RXF 393 renal was more than 100 µM in each case. The TGI in the assay with KM12 colon, with A549 NSCLC, in the assay on K-562 leukemia, in the assay on SNB-19 CNS and with CAKI-1 renal was more than 100 µM each time.

Take `O=C(CCCn1cnc([N+](=O)[O-])n1)NCCn1ccnc1[N+](=O)[O-]`: the TGI with ACHN renal, in the assay on SK-MEL-2 melanoma, with OVCAR-4 ovarian, with SK-MEL-28 melanoma, with HOP-62 NSCLC and in the assay on T-47D breast was more than 100 µM in each case. In addition, the TGI with NCI-H226 lung, in the assay with OVCAR-5 ovarian, with M14 melanoma, in the assay on HS 578T breast, with HCT-15 colon and with RXF 393 renal was more than 100 µM in each case. Further, the TGI in the assay with KM12 colon, in the assay on A549 NSCLC, in the assay on K-562 leukemia and in the assay with CAKI-1 renal was more than 100 µM in each case.

As to `O=C(Nc1ccccc1F)c1c(O)nc2sccn2c1=O`, the TGI in the assay with ACHN renal, with SN12C renal, with SK-MEL-2 melanoma, with SF-539 CNS, in the assay with OVCAR-4 ovarian and in the assay on SK-MEL-28 melanoma was more than 10 µM in each case. Further, the TGI in the assay on HOP-62 NSCLC, in the assay with OVCAR-8 ovarian, in the assay on T-47D breast, with NCI-H226 lung, with OVCAR-5 ovarian and with M14 melanoma was more than 10 µM in each case. Further, the TGI in the assay on HS 578T breast, with HCT-15 colon, with RXF 393 renal, in the assay with KM12 colon, with A549 NSCLC and in the assay with SNB-19 CNS was more than 10 µM in each case. This compound also gave a TGI with CAKI-1 renal of more than 10 µM.

`CC(=O)OC(Cc1cc(C=C(C(F)(F)F)C(F)(F)F)cc(C)n1)(C(F)(F)F)C(F)(F)F`: the TGI with ACHN renal was 2.84 µM; in the assay on SN12C renal, 3.16 µM; in the assay with SK-MEL-2 melanoma, more than 100 µM; with SF-539 CNS it was 5.27 µM; in the assay on OVCAR-4 ovarian it was 4.76 µM; in the assay with SK-MEL-28 melanoma, 2.85 µM. Also, the TGI in the assay on HOP-62 NSCLC is 3.42 µM; with OVCAR-8 ovarian it was more than 100 µM; in the assay on T-47D breast, 6.88 µM; in the assay with NCI-H226 lung it was 3.49 µM; in the assay on OVCAR-5 ovarian, 4.58 µM; in the assay with M14 melanoma, 4.08 µM. The TGI with HS 578T breast was 18 µM; with HCT-15 colon, more than 100 µM; in the assay on RXF 393 renal, 2.4 µM; in the assay on KM12 colon it was 2.98 µM; in the assay with A549 NSCLC, 12.4 µM; in the assay with K-562 leukemia, 4.28 µM. The results for the TGI with SNB-19 CNS and in the assay on CAKI-1 renal were 4.38 µM and 3.45 µM, respectively.
